Data on one compound can be found in patent US12077503B2, “Substituted cyclic amides and their use as herbicides” (FMC CORPORATION, priority 2015, dated 2024).

What all share (format): in vivo
Experiment [1] has as its system barnyardgrass (Echinochloa crus-galli). The experiment can be described thus: Test A postemergence. As to conditions: Echinochloa crus-galli, post-emergence, 240 h, Postemergence. In short, it runs like this:
(§1)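 Ratings of 0 (no effect) to 100 (complete control) come from visual comparison with untreated controls roughly 10 d after treatment. Test chemicals, formulated in a non-phytotoxic solvent mixture with surfactant, were applied either as a preemergence directed soil spray on seeded soil or postemergence to one- to two-leaf plants 2 to 10 cm tall.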

Experiment [2] deals with Kochia (Kochia scoparia). The experiment is described as follows: Test A postemergence. As to conditions: Bassia scoparia, post-emergence, 240 h, Postemergence. In short, it runs like this:
as §1

Experiment [3] relates to ryegrass, Italian (Italian ryegrass, Lolium multiflorum). The experiment can be described thus: Test A postemergence. As to conditions: Lolium multiflorum, post-emergence, 240 h, Postemergence. In short, it runs like this:
as §1

For experiment [4], the system named is blackgrass (Alopecurus myosuroides). The experiment can be described thus: Test A postemergence. As to conditions: Alopecurus myosuroides, post-emergence, 240 h, Postemergence. In outline:
as §1

For experiment [5], the system named is ragweed (common ragweed, Ambrosia elatior). The experiment can be described thus: Test A postemergence. As to conditions: Ambrosia artemisiifolia, post-emergence, 240 h, Postemergence. In short, it runs like this:
as §1

The test system of experiment [6] is corn (Zea mays). The experiment can be described thus: Test A postemergence. As to conditions: Zea mays, post-emergence, 240 h, Postemergence. In short, it runs like this:
as §1

Experiment [7] relates to wheat (Triticum aestivum). The experiment can be described thus: Test A postemergence. As to conditions: Triticum aestivum, post-emergence, 240 h, Postemergence. In short, it runs like this:
as §1

Experiment [8] relates to Galium (catchweed bedstraw, Galium aparine). The experiment is described as follows: Test A postemergence. As to conditions: Galium, post-emergence, 240 h, Postemergence. In short, it runs like this: as §1
The subject of experiment [9] is pigweed (Amaranthus retroflexus). The experiment can be described thus: Test A postemergence. As to conditions: Amaranthus retroflexus, post-emergence, 240 h, Postemergence. In short, it runs like this:
as §1

In experiment [10] the test system is giant foxtail (Setaria faberii). The experiment can be described thus: Test A postemergence. As to conditions: Setaria faberi, post-emergence, 240 h, Postemergence. In outline:
as §1

In experiment [11] the test system is rice (Oryra sativa). The experiment can be described thus: Test B flooded paddy test. As to conditions: Oryza sativa, 360 h, Flood, 250 g ai/ha; visually evaluated after 13 to 15 d; read-out: Plant response rating, Rice (0 to 100 scale where 0 is no effect and 100 is complete control). In outline: (§2)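 Percent control, visually estimated after 13–15 d in the greenhouse on a 0–100 basis, compares treated pots with untreated ones; compound was put into paddy water 3 cm above the soil when plants had two leaves.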

Experiment [12] relates to barnyardgrass (Echinochloa crus-galli). The experiment can be described thus: Test B flooded paddy test. As to conditions: Echinochloa crus-galli, 360 h, Flood, 250 g ai/ha; visually evaluated after 13 to 15 d; read-out: Plant response rating, Barnyardgrass (0 to 100 scale where 0 is no effect and 100 is complete control). In short, it runs like this:
as §2

Experiment [13] concerns sedge, umbrella (small-flower umbrella sedge, Cyperus difformis). The experiment is described as follows: Test B flooded paddy test. As to conditions: Cyperus difformis, 360 h, Flood, 250 g ai/ha; visually evaluated after 13 to 15 d; read-out: Plant response rating, Sedge, Umbrella (0 to 100 scale where 0 is no effect and 100 is complete control). In outline:
as §2

Experiment [14] deals with ducksalad (Heteranthera limosa). The experiment is described as follows: Test B flooded paddy test. As to conditions: Heteranthera limosa, 360 h, Flood, 250 g ai/ha; visually evaluated after 13 to 15 d; read-out: Plant response rating, Ducksalad (0 to 100 scale where 0 is no effect and 100 is complete control). In outline: as §2

Regarding `CN1C[C@H](c2ccc(C(F)F)cc2)[C@@H](C(=O)Nc2cccc(F)c2F)C1=O` [Compound 1383], the pest or weed control at 125 g/ha came out at 100% in experiment [1] (125 g ai/ha, visual rating about 10 d after treatment, read-out: Barnyardgrass plant response rating (0 to 100 scale, 0 no effect, 100 complete control)); 70% in experiment [2] (125 g ai/ha, visual rating about 10 d after treatment, read-out: Kochia plant response rating (0 to 100 scale)); 40% in experiment [3] (125 g ai/ha, visual rating about 10 d after treatment, read-out: Ryegrass, Italian plant response rating (0 to 100 scale)); 40% in experiment [4] (125 g ai/ha, visual rating about 10 d after treatment, read-out: Blackgrass plant response rating (0 to 100 scale)); 50% in [5] (125 g ai/ha, visual rating about 10 d after treatment, read-out: Ragweed plant response rating (0 to 100 scale)); 60% in experiment [8] (125 g ai/ha, visual rating about 10 d after treatment, read-out: Galium plant response rating (0 to 100 scale)). Also, the pest or weed control at 125 g/ha stood at 40% in experiment [9] (125 g ai/ha, visual rating about 10 d after treatment, read-out: Pigweed plant response rating (0 to 100 scale)) and 90% in [10] (125 g ai/ha, visual rating about 10 d after treatment, read-out: Foxtail, Giant plant response rating (0 to 100 scale)). In addition, the pest or weed control at 500 g/ha in experiment [1] (500 g ai/ha, visual injury, 0 to 100 scale (0 no effect, 100 complete control), approx. 10 d, read-out: Plant response rating, Barnyardgrass) was found to be 100%; in [2] (500 g ai/ha, visual injury, 0 to 100 scale (0 no effect, 100 complete control), approx. 10 d, read-out: Plant response rating, Kochia), 70%; in experiment [3] (500 g ai/ha, visual injury, 0 to 100 scale (0 no effect, 100 complete control), approx. 10 d, read-out: Plant response rating, Ryegrass, Italian) it was 50%; in experiment [4] (500 g ai/ha, visual injury, 0 to 100 scale (0 no effect, 100 complete control), approx. 10 d, read-out: Plant response rating, Blackgrass), 50%; in [5] (500 g ai/ha, visual injury, 0 to 100 scale (0 no effect, 100 complete control), approx. 10 d, read-out: Plant response rating, Ragweed), 60%; in [8] (500 g ai/ha, visual injury, 0 to 100 scale (0 no effect, 100 complete control), approx. 10 d, read-out: Plant response rating, Galium) it was 60%. For the same compound, the pest or weed control at 500 g/ha in experiment [9] (500 g ai/ha, visual injury, 0 to 100 scale (0 no effect, 100 complete control), approx. 10 d, read-out: Plant response rating, Pigweed) came out at 70%; in [10] (500 g ai/ha, visual injury, 0 to 100 scale (0 no effect, 100 complete control), approx. 10 d, read-out: Plant response rating, Foxtail, Giant) it was 90%. The plant injury at 125 g/ha in experiment [6] (125 g ai/ha, visual rating about 10 d after treatment, read-out: Corn plant response rating (0 to 100 scale)) was 80%; in experiment [7] (125 g ai/ha, visual rating about 10 d after treatment, read-out: Wheat plant response rating (0 to 100 scale)), 60%. In addition, in [6] (500 g ai/ha, visual injury, 0 to 100 scale (0 no effect, 100 complete control), approx. 10 d), the Corn plant response rating (crop injury, 0 = no effect, 100 = complete kill) at 500 g/ha was 90%. Further, the plant injury at 500 g/ha in [7] (500 g ai/ha, visual injury, 0 to 100 scale (0 no effect, 100 complete control), approx. 10 d, read-out: Plant response rating, Wheat) came out at 80%. Also, the pest or weed control at 250 g/ha came to 25% in [11], 65% in [12], 0% in experiment [13] and 100% in experiment [14].
